Patent US9926281B2 (priority 2014, dated 2018)

Key:
human ADAMTS-5 = human ADAMTS-5 (Homo sapiens (Human), UniProt Q9UNA0); conditions: read-out: hADAMTS-5 potency IC50
Experimental: Finally, the fluorescence is read on the Envision (Perkin Elmer) after an incubation of 90 min at 37° C.

human TACE = human TACE (Homo sapiens (Human), UniProt P78536); conditions: read-out: TACE potency IC50
Sequence of human TACE (P78536 whole entry, looked up, change not shown): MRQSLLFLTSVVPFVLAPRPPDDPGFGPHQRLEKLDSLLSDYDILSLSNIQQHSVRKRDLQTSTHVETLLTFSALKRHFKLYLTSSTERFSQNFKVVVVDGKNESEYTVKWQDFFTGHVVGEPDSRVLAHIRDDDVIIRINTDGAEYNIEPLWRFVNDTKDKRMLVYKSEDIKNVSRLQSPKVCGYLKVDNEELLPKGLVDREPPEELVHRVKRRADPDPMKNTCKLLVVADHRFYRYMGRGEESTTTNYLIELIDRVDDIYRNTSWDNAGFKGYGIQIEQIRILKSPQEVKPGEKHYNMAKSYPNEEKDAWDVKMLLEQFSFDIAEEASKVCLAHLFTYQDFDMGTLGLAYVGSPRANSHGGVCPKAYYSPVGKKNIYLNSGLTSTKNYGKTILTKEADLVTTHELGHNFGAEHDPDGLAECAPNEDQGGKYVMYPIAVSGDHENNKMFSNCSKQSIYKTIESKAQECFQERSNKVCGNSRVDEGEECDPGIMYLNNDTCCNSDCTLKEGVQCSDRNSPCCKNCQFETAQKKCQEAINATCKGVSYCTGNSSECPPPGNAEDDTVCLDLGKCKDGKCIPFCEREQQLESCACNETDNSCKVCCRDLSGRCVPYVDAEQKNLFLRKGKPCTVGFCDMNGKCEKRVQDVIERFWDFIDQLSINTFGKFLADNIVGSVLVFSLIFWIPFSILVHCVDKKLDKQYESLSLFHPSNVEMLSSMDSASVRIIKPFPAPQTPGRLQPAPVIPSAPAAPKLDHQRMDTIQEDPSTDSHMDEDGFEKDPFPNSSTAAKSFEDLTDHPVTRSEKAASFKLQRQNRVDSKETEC

Sequence of human ADAMTS-5 (Q9UNA0 262-930): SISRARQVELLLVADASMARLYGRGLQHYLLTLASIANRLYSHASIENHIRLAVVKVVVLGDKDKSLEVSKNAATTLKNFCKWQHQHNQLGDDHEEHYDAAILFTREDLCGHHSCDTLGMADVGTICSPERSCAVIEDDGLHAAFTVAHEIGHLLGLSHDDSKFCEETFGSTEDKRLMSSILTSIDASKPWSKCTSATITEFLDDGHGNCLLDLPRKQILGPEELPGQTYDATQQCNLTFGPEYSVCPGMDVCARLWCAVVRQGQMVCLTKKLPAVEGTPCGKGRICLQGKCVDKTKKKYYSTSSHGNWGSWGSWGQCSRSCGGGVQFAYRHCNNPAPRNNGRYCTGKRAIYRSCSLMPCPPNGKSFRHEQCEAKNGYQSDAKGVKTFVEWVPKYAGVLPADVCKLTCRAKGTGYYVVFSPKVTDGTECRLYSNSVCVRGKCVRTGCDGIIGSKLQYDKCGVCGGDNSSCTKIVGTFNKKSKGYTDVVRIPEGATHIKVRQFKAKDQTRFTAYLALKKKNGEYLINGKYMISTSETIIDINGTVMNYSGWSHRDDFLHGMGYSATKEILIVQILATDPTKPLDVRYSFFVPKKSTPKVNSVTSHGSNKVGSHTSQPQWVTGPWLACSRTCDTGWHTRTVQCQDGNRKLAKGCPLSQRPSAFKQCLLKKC

Row | Structure (SMILES) | IC50 (human ADAMTS-5) [nM] | IC50 (human TACE) [nM]
1 | C[C@H]1CN(C(=O)CCC2(C3CC3)NC(=O)NC2=O)CCN1c1cc(Cl)cc(Cl)n1 (stereo partly drawn) [compound 257, 5-cyclopropyl-5-[3-[(3S)-4-(4,6-dichloro-2-pyridyl)-3-methyl-piperazin-1-yl]-3-oxo-propyl]imidazolidine-2,4-dione] | 1570 | > 4000
2 | COC(CC1(C)NC(=O)NC1=O)C(=O)N1CCN(c2ccc(F)c(Cl)c2)[C@@H](C)C1 (stereo partly drawn) [compound 450, 5-(3-((S)-4-(3-chloro-4-fluorophenyl)-3-methylpiperazin-1-yl)-2-methoxy-3-oxopropyl)-5-methylimidazolidine-2,4-dione] | 58 | > 20000
3 | Cc1cc(N2CCN(C(=O)CC[C@@]3(C)NC(=O)NC3=O)C[C@@H]2C)cc(C)c1Cl [compound 400, (5R)-5-[3-[(3S)-4-(4-chloro-3,5-dimethyl-phenyl)-3-methyl-piperazin-1-yl]-3-oxo-propyl]-5-methyl-imidazolidine-2,4-dione] | 383 | 2930
4 | C[C@H]1CN(C(=O)CCC2(C3CC3)NC(=O)NC2=O)CCN1c1cccc2ccoc12 (stereo partly drawn) [compound 280, 5-[3-[(3S)-4-(benzofuran-7-yl)-3-methyl-piperazin-1-yl]-3-oxo-propyl]-5-cyclopropyl-imidazolidine-2,4-dione] | 275 | > 20000
5 | Cc1ccc(C2(CCC(=O)N3CCN(c4ccc(Cl)c(Cl)c4)[C@@H](C)C3)NC(=O)NC2=O)cn1 (stereo partly drawn) [compound 464, 5-[3-[(3S)-4-(3,4-dichlorophenyl)-3-methyl-piperazin-1-yl]-3-oxo-propyl]-5-(6-methyl-3-pyridyl)imidazolidine-2,4-dione] | 26 | > 4000
6 | C[C@H]1CN(C(=O)CCC2(c3cocn3)NC(=O)NC2=O)CCN1c1cc(F)cc(F)c1 (stereo partly drawn) [compound 362, 5-[3-[(3S)-4-(3,5-difluorophenyl)-3-methyl-piperazin-1-yl]-3-oxo-propyl]-5-oxazol-4-yl-imidazolidine-2,4-dione] | 50 | > 20000
7 | CC(CC1(C)NC(=O)NC1=O)C(=O)N1C[C@@H](C)N(c2cc(Cl)cc(Cl)c2)[C@@H](C)C1 (stereo partly drawn) [compound 243, 5-[3-[(3R,5S)-4-(3,5-dichlorophenyl)-3,5-dimethyl-piperazin-1-yl]-2-methyl-3-oxo-propyl]-5-methyl-imidazolidine-2,4-dione] | > 3890 | > 19500
8 | CC(CC1(C)NC(=O)NC1=O)C(=O)N1CCN(c2cccnc2)[C@@H](C)C1 (stereo partly drawn) [compound 275, 5-methyl-5-[2-methyl-3-[(3S)-3-methyl-4-(3-pyridyl)piperazin-1-yl]-3-oxo-propyl]imidazolidine-2,4-dione] | 266 | > 20000
9 | C[C@H]1CN(C(=O)CCC2(C3CC3)NC(=O)NC2=O)CCN1c1ccc(Cl)nn1 (stereo partly drawn) [compound 285, 5-[3-[(3S)-4-(6-chloropyridazin-3-yl)-3-methyl-piperazin-1-yl]-3-oxo-propyl]-5-cyclopropyl-imidazolidine-2,4-dione] | 892 | > 4000
10 | CC(CC1(c2ccccn2)NC(=O)NC1=O)C(=O)N1CCN(c2cccc(Cl)c2)[C@@H](C)C1 (stereo partly drawn) [compound 446, 5-(3-((S)-4-(3-chlorophenyl)-3-methylpiperazin-1-yl)-2-methyl-3-oxopropyl)-5-(pyridin-2-yl)imidazolidine-2,4-dione] | 19 | 840
11 | C[C@H]1CN(C(=O)CCC2(C3CC3)NC(=O)NC2=O)CCN1c1cc(F)cc(-c2cn[nH]c2)c1 (stereo partly drawn) [compound 338, 5-cyclopropyl-5-[3-[(3S)-4-[3-fluoro-5-(1H-pyrazol-4-yl)phenyl]-3-methyl-piperazin-1-yl]-3-oxo-propyl]imidazolidine-2,4-dione] | 60 | > 4000
12 | CC(CC1(c2ccccn2)NC(=O)NC1=O)C(=O)N1CCN(c2cc(Cl)cc(Cl)c2)[C@@H](C)C1 (stereo partly drawn) [compound 442, 5-(3-((S)-4-(3,5-dichlorophenyl)-3-methylpiperazin-1-yl)-2-methyl-3-oxopropyl)-5-(pyridin-2-yl)imidazolidine-2,4-dione] | 24 | 789
13 | CC(CC1(CN2CCC(F)(F)C2)NC(=O)NC1=O)C(=O)N1CCN(c2ccc(F)c(Cl)c2)[C@@H](C)C1 (stereo partly drawn) [compound 253, 5-[3-[(3S)-4-(3-chloro-4-fluoro-phenyl)-3-methyl-piperazin-1-yl]-2-methyl-3-oxo-propyl]-5-[(3,3-difuoropyrrolidin-1-yl)methyl]imidazolidine-2,4-dione] | 35 | > 20000
14 | C[C@H]1CN(C(=O)CCC2(C3CC3)NC(=O)NC2=O)CCN1c1ccc2[nH]ncc2c1 (stereo partly drawn) [compound 296, 5-cyclopropyl-5-[3-[(3S)-4-(1H-indazol-5-yl)-3-methyl-piperazin-1-yl]-3-oxo-propyl]imidazolidine-2,4-dione] | > 4000 | > 20000
15 | CC(C)n1cc(-c2cccc(N3CCN(C(=O)CCC4(C5CC5)NC(=O)NC4=O)C[C@@H]3C)c2)cn1 (stereo partly drawn) [compound 370, 5-cyclopropyl-5-[3-[(3S)-4-[3-(1-isopropylpyrazol-4-yl)phenyl]-3-methyl-piperazin-1-yl]-3-oxo-propyl]imidazolidine-2,4-dione] | 532 | > 20000
16 | C[C@H]1CN(C(=O)CCC2(C3CC3)NC(=O)NC2=O)CCN1c1cccc(-c2cncc(Cl)c2)c1 (stereo partly drawn) [compound 322, 5-[3-[(3S)-4-[3-(5-chloro-3-pyridyl)phenyl]-3-methyl-piperazin-1-yl]-3-oxo-propyl]-5-cyclopropyl-imidazolidine-2,4-dione] | 237 | > 4000
17 | Cc1nc(C2(CCC(=O)N3CCN(c4cc(F)cc(F)c4)[C@@H](C)C3)NC(=O)NC2=O)c[nH]1 (stereo partly drawn) [compound 354, 5-[3-[(3S)-4-(3,5-difluorophenyl)-3-methyl-piperazin-1-yl]-3-oxo-propyl]-5-(2-methyl-1H-imidazol-4-yl)imidazolidine-2,4-dione] | > 20000 | > 20000
18 | C[C@H]1CN(C(=O)CCC2(c3ccccn3)NC(=O)NC2=O)CCN1c1cc(F)cc(F)c1 (stereo partly drawn) [compound 348, 5-[3-[(3S)-4-(3,5-difluorophenyl)-3-methyl-piperazin-1-yl]-3-oxo-propyl]-5-(2-pyridyl)imidazolidine-2,4-dione] | 34 | > 4000
19 | CC(CC1(C2CNC2)NC(=O)NC1=O)C(=O)N1CCN(c2ccc(F)c(F)c2)CC1 (stereo not shown) [compound 240, 5-(azetidin-3-yl)-5-[3-[4-(3,4-difluorophenyl)piperazin-1-yl]-2-methyl-3-oxo-propyl]imidazolidine-2,4-dione] | 194 | > 20000
20 | C[C@H]1CN(C(=O)CCC2(c3ccccn3)NC(=O)NC2=O)CCN1c1ccc(Cl)c(Cl)c1 (stereo partly drawn) [compound 347, 5-[3-[(3S)-4-(3,4-dichlorophenyl)-3-methyl-piperazin-1-yl]-3-oxo-propyl]-5-(2-pyridyl)imidazolidine-2,4-dione] | 21 | 2380
21 | C[C@H]1CN(C(=O)CCC2(c3cnccn3)NC(=O)NC2=O)CCN1c1cc(Cl)cc(Cl)c1 (stereo partly drawn) [compound 461, 5-[3-[(3S)-4-(3,5-dichlorophenyl)-3-methyl-piperazin-1-yl]-3-oxo-propyl]-5-pyrazin-2-yl-imidazolidine-2,4-dione] | 39 | 2540
22 | Cc1cc(CC(CC2(C)NC(=O)NC2=O)C(=O)N2CCN(c3cc(Cl)cc(Cl)c3)CC2)n(C)n1 (stereo not shown) [compound 238, 5-[3-[4-(3,5-dichlorophenyl)piperazin-1-yl]-2-[(2,5-dimethylpyrazol-3-yl)methyl]-3-oxo-propyl]-5-methyl-imidazolidine-2,4-dione] | 141 | 3160
23 | Cc1cccc(C2(CCC(=O)N3CCN(c4ccc(Cl)c(F)c4)[C@@H](C)C3)NC(=O)NC2=O)n1 (stereo partly drawn) [compound 454, 5-[3-[(3S)-4-(4-chloro-3-fluoro-phenyl)-3-methyl-piperazin-1-yl]-3-oxo-propyl]-5-(6-methyl-2-pyridyl)imidazolidine-2,4-dione] | 35 | 2980
24 | Cc1cncc(N2CCN(C(=O)CCC3(C4CC4)NC(=O)NC3=O)C[C@@H]2C)c1 (stereo partly drawn) [compound 303, 5-cyclopropyl-5-[3-[(3S)-3-methyl-4-(5-methyl-3-pyridyl)piperazin-1-yl]-3-oxo-propyl]imidazolidine-2,4-dione] | 266 | > 20000
25 | Cc1cccc(C2(CCC(=O)N3CCN(c4ccc(Cl)cc4)[C@@H](C)C3)NC(=O)NC2=O)n1 (stereo partly drawn) [compound 312, 5-[3-[(3S)-4-(4-chlorophenyl)-3-methyl-piperazin-1-yl]-3-oxo-propyl]-5-(6-methyl-2-pyridyl)imidazolidine-2,4-dione] | 40 | 3680
26 | C[C@H]1CN(C(=O)CCC2(C3CC3)NC(=O)NC2=O)CCN1c1nccc(Cl)n1 (stereo partly drawn) [compound 284, 5-[3-[(3S)-4-(4-chloropyrimidin-2-yl)-3-methyl-piperazin-1-yl]-3-oxo-propyl]-5-cyclopropyl-imidazolidine-2,4-dione] | > 12000 | > 20000
27 | Cc1cc(N2CCN(C(=O)CC[C@@]3(C)NC(=O)NC3=O)C[C@@H]2C)cc(C)c1Cl [compound 470, (5R)-5-[3-[(3S)-4-(4-chloro-3,5-dimethyl-phenyl)-3-methyl-piperazin-1-yl]-3-oxo-propyl]-5-methyl-imidazolidine-2,4-dione] | 383 | 2930
28 | Cc1ccc(C2(CCC(=O)N3CCN(c4cc(F)cc(Cl)c4)[C@@H](C)C3)NC(=O)NC2=O)cn1 (stereo partly drawn) [compound 383, 5-[3-[(3S)-4-(3-chloro-5-fluoro-phenyl)-3-methyl-piperazin-1-yl]-3-oxo-propyl]-5-(6-methyl-3-pyridyl)imidazolidine-2,4-dione] | 43 | > 4000
29 | Cc1cccc(C2(CCC(=O)N3CCN(c4ccc(F)c(Cl)c4)[C@@H](C)C3)NC(=O)NC2=O)n1 (stereo partly drawn) [compound 447, 5-[3-[(3S)-4-(3-chloro-4-fluoro-phenyl)-3-methyl-piperazin-1-yl]-3-oxo-propyl]-5-(6-methyl-2-pyridyl)imidazolidine-2,4-dione] | 56 | 3620
